Source: patent publication US8357717B2, “Spiro group-containing amide compounds having bradykinin 1 receptor (B1R) activity” (Gruenenthal GmbH, priority 2009, dated 2013)

What was measured:
[1] = molecular target: T1, human B1R receptor (hB1R) (Homo sapiens, UniProt P46663); test: FLIPR Ca2+ functional study on bradykinin receptor 1, hB1R cells (CHO K1); type: cell-based; settings: CHO K1 cells with human B1R, agonist Lys-Des-Arg9-bradykinin at EC80; for inhibition at 10 µM: CHO-K1, 10 μM test substance, read-out: B1R antagonism, human [10 μM] % inhibition; for B1R antagonism, human [10 μM] % inhibition: 10 μM test substance
T1 construct: expressed in transfected cells; host or cells: CHO K1 cells, stably transfected
T1 sequence (P46663 1-353): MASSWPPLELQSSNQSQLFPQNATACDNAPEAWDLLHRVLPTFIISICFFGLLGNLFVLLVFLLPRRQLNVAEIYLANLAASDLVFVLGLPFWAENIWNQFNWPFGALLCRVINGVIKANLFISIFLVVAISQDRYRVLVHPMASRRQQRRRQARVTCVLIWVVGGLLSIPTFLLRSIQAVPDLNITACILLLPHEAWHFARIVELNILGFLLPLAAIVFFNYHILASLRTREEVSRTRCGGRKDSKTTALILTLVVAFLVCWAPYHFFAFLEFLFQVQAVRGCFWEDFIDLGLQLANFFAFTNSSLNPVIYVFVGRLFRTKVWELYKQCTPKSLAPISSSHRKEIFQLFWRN
Outline: (§1)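 Stably transfected CHO K1 cells loaded with Fluo-4; FLIPR Ca2+ fluorescence (ex 488/em 540 nm, peak counts). Compounds (10 μM, or concentration series for IC50) preincubated 10–20 min, then EC80 agonist added (human: Lys-Des-Arg9-bradykinin; rat: Des-Arg9-bradykinin); % inhibition versus maximum achievable, n=2–3, N≥2.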

[2] = molecular target: T2, B1R receptor of the rat (rB1R) (Rattus norvegicus, UniProt P97583); test: FLIPR Ca2+ functional study on bradykinin receptor 1, rB1R cells (CHO K1); type: cell-based; settings: 10 μM test substance, CHO K1 cells with rat B1R, agonist Des-Arg9-bradykinin at EC80; for inhibition at 10 µM: read-out: B1R antagonism, rat [10 μM] % inhibition
T2 construct: expressed in transfected cells; host or cells: CHO K1 cells, stably transfected
T2 sequence (P97583 1-337): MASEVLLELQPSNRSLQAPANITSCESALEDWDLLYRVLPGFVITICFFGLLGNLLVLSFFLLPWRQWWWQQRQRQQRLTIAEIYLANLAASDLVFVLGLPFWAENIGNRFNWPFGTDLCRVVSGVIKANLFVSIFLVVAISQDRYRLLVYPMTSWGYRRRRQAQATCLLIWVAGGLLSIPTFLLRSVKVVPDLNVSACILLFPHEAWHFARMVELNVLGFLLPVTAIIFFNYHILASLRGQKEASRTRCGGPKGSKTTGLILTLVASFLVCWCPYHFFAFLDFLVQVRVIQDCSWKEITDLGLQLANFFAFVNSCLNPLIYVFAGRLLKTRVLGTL
Outline: as §1

Compound	inhibition at 10 µM [1]	inhibition at 10 µM [2]	B1R antagonism, human [10 μM] % inhibition [1]	B1R antagonism, rat [10 μM] % inhibition [2]
O=C(c1ccc2c(c1)CN(C(=O)c1ccc(Cl)s1)C2)N1CCC2(CC1)CCN(c1ccncc1)CC2 [Compound G-69, [2-(5-Chloro-thiophene-2-carbonyl)-2,3-dihydro-1H-isoindol-5-yl]-(9-pyridin-4-yl-3,9-diazaspiro[5.5]undecan-3-yl)-methanone]	99%	70%		
COc1cc(C)c(S(=O)(=O)N2CCCc3ccc(CC(=O)N4CCC5(CC4)CCN(c4ccncc4)CC5)nc32)c(C)c1 [Compound G-70, 2-[8-[(4-Methoxy-2,6-dimethyl-phenyl)sulfonyl]-5,6,7,8-tetrahydro-[1,8]naphthyridin-2-yl]-1-(9-pyridin-4-yl-3,9-diazaspiro[5.5]undecan-3-yl)-ethanone]	88%	101%		
O=C(c1cn2c(n1)CN(C(=O)c1ccc(Cl)s1)CC2)N1CCC2(CC1)CCN(c1ccncc1)CC2 [Compound G-71, [7-(5-Chloro-thiophene-2-carbonyl)-5,6,7,8-tetrahydro-imidazo[1,2-a]pyrazin-2-yl]-(9-pyridin-4-yl-3,9-diazaspiro[5.5]undecan-3-yl)-methanone]	91%	80%		
COc1cc(C)c(S(=O)(=O)N2CCn3cnc(C(=O)N4CCC5(CC4)CCN(c4ccncc4)CC5)c3C2)c(C)c1 [Compound G-72, [7-[(4-Methoxy-2,6-dimethyl-phenyl)sulfonyl]-5,6,7,8-tetrahydro-imidazo[1,5-a]pyrazin-1-yl]-(9-pyridin-4-yl-3,9-diazaspiro[5.5]undecan-3-yl)-methanone]	100%	104%		
COc1cc(C)c(C(=O)N2Cc3ccc(C(=O)N4CCC5(CC4)CCN(c4ccncc4)CC5)cc3C2)c(C)c1 [Compound G-73, [2-(4-Methoxy-2,6-dimethyl-benzoyl)-2,3-dihydro-1H-isoindol-5-yl]-(9-pyridin-4-yl-3,9-diazaspiro[5.5]undecan-3-yl)-methanone]	85%	13%		
Cc1cc(S(=O)(=O)N2CCc3ccc(C(=O)N4CCC5(CC4)CCN(c4ccncc4)CC5)cc32)c(C)cc1Cl [G_CC-013, (1-(4-Chloro-2,5-dimethylphenylsulfonyl)indolin-6-yl)(9-(pyridin-4-yl)-3,9-diazaspiro[5.5]undecan-3-yl)methanone]	87%	99%		
COc1cc(C)c(S(=O)(=O)N2CCCc3ccc(CC(=O)N4CCC5(CC4)CCN(c4ccncc4)CC5)cc32)c(C)c1 [G_CC-055, 2-[1-[(4-Methoxy-2,6-dimethyl-phenyl)sulfonyl]-1,2,3,4-tetrahydro-quinolin-7-yl]-1-(3-pyridin-4-yl-3,9-diazaspiro[5.5]undecan-9-yl)-ethanone]			96%	98%
COc1cc(C)c(S(=O)(=O)N2CCCc3ccc(C(=O)N4CCC5(CC4)CCN(c4ccncc4)CC5)cc32)c(C)c1 [G_CC-056, [1-[(4-Methoxy-2,6-dimethyl-phenyl)sulfonyl]-1,2,3,4-tetrahydro-quinolin-7-yl]-(3-pyridin-4-yl-3,9-diazaspiro[5.5]undecan-9-yl)-methanone]			98%	100%
